Experimental findings from patent US20100216827A1 (Metabolex, Inc., priority 2008, published 2010) are described below.

This test addresses T1, human GPR120 (Homo sapiens, UniProt Q5NUL3).
T1 construct: host or cells: HEK293 cells coexpressing Gqi5
T1 sequence (Q5NUL3 1-361): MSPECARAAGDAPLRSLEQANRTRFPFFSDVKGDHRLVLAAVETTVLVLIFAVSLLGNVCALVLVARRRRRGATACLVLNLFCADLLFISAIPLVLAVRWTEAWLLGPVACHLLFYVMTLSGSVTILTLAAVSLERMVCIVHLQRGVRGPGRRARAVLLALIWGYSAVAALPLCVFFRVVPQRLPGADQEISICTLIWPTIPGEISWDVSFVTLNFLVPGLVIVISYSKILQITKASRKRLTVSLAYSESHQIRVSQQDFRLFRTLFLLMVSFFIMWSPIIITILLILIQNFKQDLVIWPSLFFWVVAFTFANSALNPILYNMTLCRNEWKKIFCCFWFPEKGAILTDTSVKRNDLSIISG
As to the kind of experiment: Intracellular Ca2+ (FLIPR Calcium 4, Flexstation) assay in human GPR120 stable HEK293 cell line coexpressing Gqi5. As to conditions: for % Activity at 5 μM: 5 μM compound compared to the maximal activity of GW9508 at 6.7 μM (100%); for EC50: human GPR120 stably expressing cells, 8 concentrations 0.00001 to 20 μM. Type of test: cell-based. In short, it runs like this: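 Calcium 4 dye-loaded HEK293 cells expressing N-terminally Flag-tagged human GPR120 with Gqi5 (HBSS/20 mM HEPES, pH 7.4; 50 min, 37 °C). Fluorescence (485/525 nm) read for 90 s after addition of compound at 8 concentrations, 0.00001–20 μM; EC50 from Max−Min change. % activity at 5 μM versus maximal GW9508 response (6.7 μM).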

[1] abbreviates: read-out: EC50 between >1 μM and ≦10 μM.

Each structure is given as a SMILES string. Where two headings read alike, the source gives them in different places.

In the case of `O=C(O)CCc1cc(F)c(OCc2ncsc2-c2ccccc2)c(F)c1` [Example 28, 3-(3,5-difluoro-4-((5-phenylthiazol-4-yl)methoxy)phenyl)propanoic acid], the “% Activity at 5 μM” value was determined as 87%. Moreover, the EC50 (read-out: EC50 ≦ 1 μM) was at most 1 µM.

On to `O=C(O)C(F)(F)Cc1cc(F)c(OCc2snnc2-c2ccc(Cl)cc2)c(F)c1` [Example 52, 3-(4-((4-(4-chlorophenyl)-1,2,3-thiadiazol-5-yl)methoxy)-3,5-difluorophenyl)-2,2-difluoropropanoic acid], for which the “% Activity at 5 μM” value came out at 96%. For the same compound, the EC50 (read-out: EC50 ≦ 1 μM) was at most 1 µM.

In the case of `Cc1cc(COc2ccc(C(C)(C)CC(=O)O)cc2)n(-c2ccc(Cl)cc2)n1` [Example 125, 3-(4-((1-(4-chlorophenyl)-3-methyl-1H-pyrazol-5-yl)methoxy)phenyl)-3-methylbutanoic acid], the “% Activity at 5 μM” value is given as 47%. Further, the 50% effective concentration (EC50) under setting [1] lay within 1 to 10 µM.

For `Cc1onc(-c2ccc(F)cc2)c1COc1c(F)cc(CCC(=O)O)cc1F` [Example 18, 3-(3,5-difluoro-4-((3-(4-fluorophenyl)-5-methylisoxazol-4-yl)methoxy)phenyl)propanoic acid], the “% Activity at 5 μM” value is 77%. Further, the concentration giving a half-maximal response (EC50) (read-out: EC50 ≦ 1 μM) is at most 1 µM.

As for `CCOC(Cc1cc(F)c(OCc2cc(C)nn2-c2ccc(Cl)cc2)c(F)c1)C(=O)O` (stereo not shown) [Example 102, 3-(4-((1-(4-chlorophenyl)-3-methyl-1H-pyrazol-5-yl)methoxy)-3,5-difluorophenyl)-2-ethoxypropanoic acid], the “% Activity at 5 μM” value was 61%. Further, the EC50 under setting [1] fell in the range of 1 to 10 µM.

In the case of `Cc1cc(C)cc(-n2nc(C)cc2COc2c(F)cc(CC(C)C(=O)O)cc2F)c1` (stereo not shown) [Example 92, 3-(4-((1-(3,5-dimethylphenyl)-3-methyl-1H-pyrazol-5-yl)methoxy)-3,5-difluorophenyl)-2-methylpropanoic acid], the “% Activity at 5 μM” value turned out to be 58%. Besides, the EC50 (read-out: EC50 ≦ 1 μM) was at most 1 µM.

For `Cc1cc(COc2c(Cl)cc(CC(C)C(=O)O)cc2Cl)n(-c2ccc(Cl)cc2)n1` (stereo not shown) [Example 113, 3-(3,5-Dichloro-4-((1-(4-chlorophenyl)-3-methyl-1H-pyrazol-5-yl)methoxy)phenyl)-2-methylpropanoic acid], the “% Activity at 5 μM” value amounted to 92%. The EC50 (read-out: EC50 ≦ 1 μM) is at most 1 µM.

For the compound `Cc1cc(COc2ccc3c(c2)CCC(CC(=O)O)C3)n(-c2ccc(Cl)cc2)n1` (stereo not shown) [Example 39, 2-(6-((1-(4-chlorophenyl)-3-methyl-1H-pyrazol-5-yl)methoxy)-1,2,3,4-tetrahydronaphthalen-2-yl)acetic acid], the “% Activity at 5 μM” value was found to be 100%. Besides, under “read-out: EC50 ≦ 1 μM”, the EC50 was at most 1 µM.

In the case of `Cc1onc(-c2ccccc2)c1COc1c(F)cc(COCC(=O)O)cc1F` [Example 34, 2-(3,5-difluoro-4-((5-methyl-3-phenylisoxazol-4-yl)methoxy)benzyloxy)acetic acid], the “% Activity at 5 μM” value was found to be 74%. In addition, the 50% effective concentration (EC50) under setting [1] was 1 to 10 µM.

As to `CCc1ccc(-n2nc(C)cc2COc2c(F)cc(C[C@@H](C)C(=O)O)cc2F)cc1` [Example 98, (R)-3-(4-((1-(4-ethylphenyl)-3-methyl-1H-pyrazol-5-yl)methoxy)-3,5-difluorophenyl)-2-methylpropanoic acid], the “% Activity at 5 μM” value was found to be 104%. For the same compound, the EC50 (read-out: EC50 ≦ 1 μM) was at most 1 µM.

`O=C(O)CCc1cc(F)c(OCc2ccnn2-c2ccccc2)c(F)c1` [Example 48, 3-(3,5-difluoro-4-((1-phenyl-1H-pyrazol-5-yl)methoxy)phenyl)propanoic acid]: the “% Activity at 5 μM” value amounted to 73%. Where the note is “read-out: EC50 ≦ 1 μM”, the EC50 was at most 1 µM.

For `Cc1cc(COc2c(F)cc(CC(C)C(=O)O)cc2F)n(-c2ccc3c(c2)CCC3)n1` (stereo not shown) [Example 81, 3-(4-((1-(2,3-dihydro-1H-inden-5-yl)-3-methyl-1H-pyrazol-5-yl)methoxy)-3,5-difluorophenyl)-2-methylpropanoic acid], the “% Activity at 5 μM” value was found to be 106%. In addition, where the note is “read-out: EC50 ≦ 1 μM”, the EC50 is at most 1 µM.

Regarding `CC(Cc1cc(F)c(OCc2c(C(F)(F)F)nn(C)c2Oc2ccccc2)c(F)c1)C(=O)O` (stereo not shown) [Example 114, 3-(3,5-Difluoro-4-((1-methyl-5-phenoxy-3-(trifluoromethyl)-1H-pyrazol-4-yl)methoxy)phenyl)-2-methylpropanoic acid], the “% Activity at 5 μM” value came out at 111%. For the same compound, the EC50 (read-out: EC50 ≦ 1 μM) was at most 1 µM.

For the compound `Cc1cc(COc2c(F)cc(CCC(=O)O)cc2F)n(-c2ccc(Cl)cc2)n1` [Example 50, 3-(4-((1-(4-chlorophenyl)-3-methyl-1H-pyrazol-5-yl)methoxy)-3,5-difluorophenyl)propanoic acid], the “% Activity at 5 μM” value stood at 85%. Under “read-out: EC50 ≦ 1 μM”, the EC50 was at most 1 µM.

As to `COc1ccc(-n2nc(C)cc2COc2c(F)cc(CCC(=O)O)cc2F)cc1` [Example 49, 3-(3,5-difluoro-4-((1-(4-methoxyphenyl)-3-methyl-1H-pyrazol-5-yl)methoxy)phenyl)propanoic acid], the “% Activity at 5 μM” value is recorded as 71%. Besides, for the setting “read-out: EC50 ≦ 1 μM”, the EC50 was at most 1 µM.

In the case of `Cc1onc(-c2ccccc2)c1COc1c(F)cc(CC(C)C(=O)O)cc1F` (stereo not shown) [Example 37, 3-(3,5-difluoro-4-((5-methyl-3-phenylisoxazol-4-yl)methoxy)phenyl)-2-methylpropanoic acid], the “% Activity at 5 μM” value is on record as 94%. The EC50 (read-out: EC50 ≦ 1 μM) was at most 1 µM.

Take `CCc1cc(OCc2cc(C)nn2-c2ccc(Cl)cc2)ccc1CCC(=O)O` [Example 118, 3-(4-((1-(4-chlorophenyl)-3-methyl-1H-pyrazol-5-yl)methoxy)-2-ethylphenyl)propanoic acid]: the “% Activity at 5 μM” value was determined as 103%. The EC50 (read-out: EC50 ≦ 1 μM) is at most 1 µM.

For `C/C(=C\C(=O)O)Cc1ccc(OCc2snnc2-c2ccc(Cl)cc2)cc1` [Example 69, (E)-4-(4-((4-(4-chlorophenyl)-1,2,3-thiadiazol-5-yl)methoxy)phenyl)-3-methylbut-2-enoic acid], the “% Activity at 5 μM” value is given as 87%. Moreover, the EC50 under setting [1] lay in the range of 1 to 10 µM.

On to `CCCCc1ccc(-n2nc(C)cc2COc2c(F)cc(CC(C)C(=O)O)cc2F)cc1` (stereo not shown) [Example 82, 3-(4-((1-(4-butylphenyl)-3-methyl-1H-pyrazol-5-yl)methoxy)-3,5-difluorophenyl)-2-methylpropanoic acid], for which the “% Activity at 5 μM” value is listed as 68%. Besides, the EC50 (read-out: EC50 ≦ 1 μM) was at most 1 µM.

Regarding `Cc1cnn(-c2ccc(F)cc2)c1COc1c(F)cc(CCC(=O)O)cc1F` [Example 51, 3-(3,5-difluoro-4-((1-(4-fluorophenyl)-4-methyl-1H-pyrazol-5-yl)methoxy)phenyl)propanoic acid], the “% Activity at 5 μM” value came out at 81%. Besides, the EC50 (read-out: EC50 ≦ 1 μM) was at most 1 µM.

With `Cc1cc(COc2ccc(CC(C)C(=O)O)cc2C)n(-c2ccc(Cl)cc2)n1` (stereo not shown) [Example 109, 3-(4-((1-(4-Chlorophenyl)-3-methyl-1H-pyrazol-5-yl)methoxy)-3-methylphenyl)-2-methylpropanoic acid], the “% Activity at 5 μM” value turned out to be 114%. Moreover, the EC50 (read-out: EC50 ≦ 1 μM) is at most 1 µM.

In the case of `CCc1cc(COc2c(F)cc(CC(C)C(=O)O)cc2F)n(-c2ccc(Cl)cc2)n1` (stereo not shown) [Example 101, 3-(4-((1-(4-chlorophenyl)-3-ethyl-1H-pyrazol-5-yl)methoxy)-3,5-difluorophenyl)-2-methylpropanoic acid], the “% Activity at 5 μM” value is on record as 113%. Moreover, for the setting “read-out: EC50 ≦ 1 μM”, the EC50 is at most 1 µM.

With `Cc1cc(COc2c(F)cc(CC(C)C(=O)O)cc2F)n(-c2ccc(C)c(C)c2)n1` (stereo not shown) [Example 87, 3-(4-((1-(3,4-dimethylphenyl)-3-methyl-1H-pyrazol-5-yl)methoxy)-3,5-difluorophenyl)-2-methylpropanoic acid], the “% Activity at 5 μM” value stood at 106%. For the setting “read-out: EC50 ≦ 1 μM”, the EC50 was at most 1 µM.
